Patent US7825132B2, “Inhibition of FGFR3 and treatment of multiple myeloma” (Novartis Vaccines and Diagnostics, Inc., priority 2002, dated 2010)
Where two headings read alike, the source gives them in different places. Each block holds one compound with its values, some of them ahead of it.

What was measured:
OPM-2 cells = settings: Grand et al., Leukemia 2004; cited from earlier work
c-Kit = target: T1, c-Kit (Homo sapiens, UniProt P10721); assay: In vitro RTK kinase assay (TRF or radioactive); type: biochemical; settings: Table 13
T1 construct: Recombinant proteins corresponding to the cytoplasmic domains of the c-Kit and FLT-3 receptors were purchased (Proquinase); purchased Proquinase

[1] = Monkey multiple oral dose experiment, plasma levels; type: in vivo; settings: compound 1 5 mg/kg BID oral, day 1 and 14 samples
CYP2D6 = CYP2D6 (Homo sapiens, UniProt P10635); assay: Inhibition of cDNA derived CYP isozymes; type: in vitro ADME; settings: cDNA-derived (recombinant) CYP2D6
CYP1A2 = target: T2, CYP1A2 (Homo sapiens, UniProt P05177); assay: Inhibition of cDNA derived CYP isozymes; type: in vitro ADME; settings: cDNA-derived (recombinant) CYP1A2
T2 sequence (P05177 1-516): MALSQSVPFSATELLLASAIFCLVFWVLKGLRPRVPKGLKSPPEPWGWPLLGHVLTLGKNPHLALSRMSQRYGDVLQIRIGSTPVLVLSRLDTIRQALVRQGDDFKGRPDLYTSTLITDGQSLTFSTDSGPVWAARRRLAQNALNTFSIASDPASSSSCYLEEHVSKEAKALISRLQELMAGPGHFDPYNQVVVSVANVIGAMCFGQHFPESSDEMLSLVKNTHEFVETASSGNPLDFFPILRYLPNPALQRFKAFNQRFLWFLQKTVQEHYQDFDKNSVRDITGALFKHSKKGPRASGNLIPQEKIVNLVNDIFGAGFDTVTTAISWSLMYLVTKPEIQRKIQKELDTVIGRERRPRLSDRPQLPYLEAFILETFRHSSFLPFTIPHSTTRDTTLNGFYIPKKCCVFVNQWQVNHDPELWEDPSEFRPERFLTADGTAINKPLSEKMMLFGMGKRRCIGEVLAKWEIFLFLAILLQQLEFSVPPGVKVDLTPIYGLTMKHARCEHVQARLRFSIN
Description: (§1) The compound was stable in human liver microsomes. […].

CYP3A4 = CYP3A4 (Homo sapiens, UniProt P08684); assay: Inhibition of cDNA derived CYP isozymes; type: in vitro ADME; settings: cDNA-derived (recombinant) CYP3A4
Description: as §1

CYP2C9 = CYP2C9 (Homo sapiens, UniProt P11712); assay: Inhibition of cDNA derived CYP isozymes; type: in vitro ADME; settings: cDNA-derived (recombinant) CYP2C9
Description: as §1

CYP2C19 = CYP2C19 (Homo sapiens, UniProt P33261); assay: Inhibition of cDNA derived CYP isozymes; type: in vitro ADME; settings: cDNA-derived (recombinant) CYP2C19
[2] = tested on: FGF-2 supplemented Matrigel neovascularization
[3] = tested on: PC3 human prostate tumor xenografts
TF-1 cells = assay: cells; settings: Homo sapiens, TF-1, 72 h
ERK (MAPK) = ERK (MAPK) phosphorylation in HCT116 tumors; type: in vivo; settings: dose- and time-dependent
[4] = tested on: VEGFR1, VEGFR2, PDGFRβ, and FGFR1; settings: KM12L4a tumors after treatment
[5] = tested on: cancer and primary cell lines; assay: antiproliferative activity, MTS assay, 27 cancer and primary cell lines (Table 6); type: cell-based; settings: Homo sapiens, 26 out of the 27 cell lines, 72 hours
Description: . […] The EC50 values were calculated using nonlinear regression. […]

[6] = Compound 1 and metabolite levels in rat plasma, 2 week toxicology study; type: in vivo

T1 sequence (P10721 546-976 limits assumed): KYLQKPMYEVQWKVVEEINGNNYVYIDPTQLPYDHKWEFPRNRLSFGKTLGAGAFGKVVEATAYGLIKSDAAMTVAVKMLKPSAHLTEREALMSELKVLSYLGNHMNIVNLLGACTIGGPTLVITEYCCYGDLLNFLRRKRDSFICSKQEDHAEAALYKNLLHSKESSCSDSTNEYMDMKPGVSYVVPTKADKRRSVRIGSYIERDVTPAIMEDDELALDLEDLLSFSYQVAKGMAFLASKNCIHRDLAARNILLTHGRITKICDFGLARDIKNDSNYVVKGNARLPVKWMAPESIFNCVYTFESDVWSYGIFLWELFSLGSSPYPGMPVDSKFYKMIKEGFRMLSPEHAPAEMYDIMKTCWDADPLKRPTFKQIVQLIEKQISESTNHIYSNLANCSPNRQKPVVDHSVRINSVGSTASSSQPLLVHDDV
CYP2C9, sequence (P11712 whole entry): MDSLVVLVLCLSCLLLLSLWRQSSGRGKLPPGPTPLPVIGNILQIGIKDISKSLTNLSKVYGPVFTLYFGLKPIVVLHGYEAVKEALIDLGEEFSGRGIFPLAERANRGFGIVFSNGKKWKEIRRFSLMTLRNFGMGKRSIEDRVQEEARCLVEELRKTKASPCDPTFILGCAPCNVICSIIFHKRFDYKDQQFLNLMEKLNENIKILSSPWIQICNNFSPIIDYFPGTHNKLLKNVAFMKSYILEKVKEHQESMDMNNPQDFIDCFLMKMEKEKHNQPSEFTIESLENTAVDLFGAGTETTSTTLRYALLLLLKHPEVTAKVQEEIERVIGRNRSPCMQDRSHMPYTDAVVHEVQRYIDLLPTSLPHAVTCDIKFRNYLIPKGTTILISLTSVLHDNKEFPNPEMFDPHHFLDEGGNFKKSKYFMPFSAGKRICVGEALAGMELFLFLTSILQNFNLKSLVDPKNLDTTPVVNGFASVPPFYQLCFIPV
CYP3A4, sequence (P08684 whole entry): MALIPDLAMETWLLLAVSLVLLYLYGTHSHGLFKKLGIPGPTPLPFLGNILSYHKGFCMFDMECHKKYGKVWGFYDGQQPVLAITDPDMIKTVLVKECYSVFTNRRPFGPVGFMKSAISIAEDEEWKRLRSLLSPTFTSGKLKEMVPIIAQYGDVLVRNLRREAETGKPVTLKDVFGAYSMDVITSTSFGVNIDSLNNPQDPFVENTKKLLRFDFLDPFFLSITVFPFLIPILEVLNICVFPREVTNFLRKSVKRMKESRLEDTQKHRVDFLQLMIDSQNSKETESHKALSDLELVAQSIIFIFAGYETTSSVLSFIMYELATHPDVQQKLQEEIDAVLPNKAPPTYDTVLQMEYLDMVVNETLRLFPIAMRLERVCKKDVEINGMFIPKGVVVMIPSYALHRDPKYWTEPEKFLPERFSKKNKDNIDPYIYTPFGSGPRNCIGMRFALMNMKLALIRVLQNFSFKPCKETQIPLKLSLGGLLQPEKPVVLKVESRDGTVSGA
CYP2D6, sequence (P10635 whole entry): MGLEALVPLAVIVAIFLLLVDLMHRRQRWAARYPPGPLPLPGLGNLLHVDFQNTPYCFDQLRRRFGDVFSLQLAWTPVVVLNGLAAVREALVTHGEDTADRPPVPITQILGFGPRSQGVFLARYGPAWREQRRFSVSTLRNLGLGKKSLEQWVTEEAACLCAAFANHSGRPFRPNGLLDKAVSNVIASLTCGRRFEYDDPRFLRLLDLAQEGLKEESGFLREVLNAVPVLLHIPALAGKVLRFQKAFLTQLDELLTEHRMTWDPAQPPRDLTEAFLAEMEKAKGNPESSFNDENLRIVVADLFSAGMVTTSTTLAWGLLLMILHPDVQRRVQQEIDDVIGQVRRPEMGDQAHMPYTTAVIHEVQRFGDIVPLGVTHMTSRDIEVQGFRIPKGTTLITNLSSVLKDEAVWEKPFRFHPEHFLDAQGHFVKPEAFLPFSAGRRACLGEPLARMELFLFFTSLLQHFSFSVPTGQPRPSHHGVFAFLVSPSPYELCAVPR
CYP2C19, sequence (P33261 whole entry): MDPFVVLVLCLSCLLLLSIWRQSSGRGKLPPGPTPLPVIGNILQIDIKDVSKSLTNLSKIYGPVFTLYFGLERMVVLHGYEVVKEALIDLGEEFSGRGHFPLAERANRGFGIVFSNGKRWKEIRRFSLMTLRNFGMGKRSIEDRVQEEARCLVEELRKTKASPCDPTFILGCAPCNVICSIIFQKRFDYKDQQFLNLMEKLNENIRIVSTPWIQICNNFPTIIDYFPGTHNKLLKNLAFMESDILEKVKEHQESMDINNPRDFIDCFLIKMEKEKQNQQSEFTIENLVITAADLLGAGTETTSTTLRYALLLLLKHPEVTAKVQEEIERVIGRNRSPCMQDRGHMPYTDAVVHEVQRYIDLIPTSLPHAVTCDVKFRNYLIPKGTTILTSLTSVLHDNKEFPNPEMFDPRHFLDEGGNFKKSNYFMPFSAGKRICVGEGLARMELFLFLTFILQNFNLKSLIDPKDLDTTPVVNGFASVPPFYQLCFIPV

SMILES: CCN(CC)CCCCNc1ncc2cc(-c3cc(OC)cc(OC)c3)c(NC(=O)NC(C)(C)C)nc2n1 [PD173074]
- cytotoxic response / apoptosis in OPM2 cells (OPM-2 cells): failed to induce apoptosis

- IC50 (c-Kit): 0.0002 µM
- presence of the N-oxide metabolite in monkey plasma [1]: not detected
SMILES: C[N+]1([O-])CCN(c2ccc3nc(-c4c(N)c5c(F)cccc5[nH]c4=O)[nH]c3c2)CC1 [Compound 2, 4-Amino-5-fluoro-3-[5-(4-methyl-4-oxidopiperazin-1-yl)-1H-benzimidazol-2-yl]quinolin-2(1H)-one]

SMILES: CN1CCN(c2ccc3nc(-c4c(N)c5c(F)cccc5[nH]c4=O)[nH]c3c2)CC1
- IC50 (CYP2D6): > 25 µM
- IC50 (CYP1A2): > 25 µM
- IC50 (CYP3A4): > 25 µM
- IC50 (CYP2C9): > 25 µM
- IC50 (CYP2C19): > 25 µM
- tolerability ([2]; mouse, in vivo): well tolerated

SMILES: CN1CCN(c2ccc3nc(-c4c(N)c5c(F)cccc5[nH]c4=O)[nH]c3c2)CC1 [Compound 1]
- % TGI vs. vehicle ([3]; 100 mpk q 2 days): 75%
- % TGI vs. vehicle ([3]; 100 mpk q 3 days): 68%
- % TGI vs. vehicle ([3]; 100 mpk q 4 days): 66%
- % TGI vs. vehicle ([3]; 100 mpk qd, days 1-11): 60%
- EC50 (TF-1 cells): ≤ 0.05 µM
- phosphorylation of ERK (MAPK) (ERK (MAPK)): inhibited
- phosphorylation of VEGFR1, VEGFR2, PDGFRβ, and FGFR1 [4]: inhibited in a time- and dose-dependent manner
- % Hb inhibition vs. Vehicle treatment of Matrigel + FGF ([2]; 30 mg/kg): 71%
- % Hb inhibition vs. Vehicle treatment of Matrigel + FGF ([2]; 200 mg/kg): 89%
- % Hb inhibition vs. Vehicle treatment of Matrigel + FGF ([2]; 300 mg/kg): 91%
- inhibition vs. FGF-supplemented controls ([2]; range over 30, 100, 200 and 300 mg/kg): 70-92%

SMILES: CN1CCN(c2ccc3[nH]c(-c4c(N)c5c(F)cccc5[nH]c4=O)nc3c2)CC1 [Example 166]
- EC50 [5]: < 10 µM

- IC50 (c-Kit): 0.0002 µM
SMILES: Nc1c(-c2nc3ccc(N4CCNCC4)cc3[nH]2)c(=O)[nH]c2cccc(F)c12 [Compound 3, 4-Amino-5-fluoro-3-(5-piperazin-1-yl-1H-benzimidazol-2-yl)quinolin-2(1H)-one]
- Des-CH3 (ng/ml), estimated from UV ([6]; compound 1 30 mg/kg PO, Day 14, 1-2 hr): 6 ng/mL
- Des-CH3 (ng/ml), estimated from UV ([6]; compound 1 30 mg/kg PO, Day 14, 4-8 hr): 12 ng/mL
- Des-CH3 (ng/ml), estimated from UV ([6]; compound 1 100 mg/kg PO, Day 1, 1-2 hr): 35 ng/mL
- Des-CH3 (ng/ml), estimated from UV ([6]; compound 1 100 mg/kg PO, Day 1, 4-8 hr): 84 ng/mL
